The text below walks through data of the METLIN SMRT retention time set (Domingo-Almenara et al. 2019).

The series in a line: gradient 5% acetonitrile 3 min, to 50% in 2 min, to 85% in 15 min, held 3 min, 100 µL/min. The following applies: column: Zorbax Extend-C18 2.1 x 50 mm; eluents: water / acetonitrile, 0.1% formic acid. The essentials: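 Pure standards were run in mixtures of ~100 molecules by HPLC coupled to a quadrupole time-of-flight mass spectrometer. The column was a Zorbax Extend-C18 (2.1 × 50 mm, 1.8 μm) at 100 μL/min, with water and acetonitrile each containing 0.1% formic acid, in positive and negative ionization mode. Dead and dwell volumes were 40 μL and 900 μL. Retention time was taken from computationally picked adduct peaks, each manually inspected, with data collected over 3 months.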
Regarding `CCCC(C)C(=O)NC1CCN(C2=NS(=O)(=O)C(c3ccc(F)cc3)=C2C)CC1` (stereo not drawn), the RP-LC retention time was 856 s.

Compound `CN(C)C(=O)c1csc(S(=O)(=O)N2CCC(C(=O)NCc3ccccc3Cl)CC2)c1` came in with an RP-LC retention time of 784 s.

Compound `O=C(CSc1ncccn1)Nc1nc(-c2ccccc2)cs1` yielded an RP-LC retention time of 837 s.

In turn, `COc1ccc(C)c2sc(NS(=O)(=O)c3ccc(C)cc3)nc12` had an RP-LC retention time of 870 s.

With `COc1ccc(CCNC(=O)NCC2CCN(Cc3ccsc3)CC2)cc1`, the RP-LC retention time worked out at 565 s.

As for `Cc1noc(C)c1Cc1ccc(C(=O)N2CCCCCCNC(=O)[C@@H]3CCCC[C@@H]32)o1`, the RP-LC retention time came out at 839 s.

`CCc1noc(NC(C)=O)c1-c1ccc(C)c(S(=O)(=O)NCc2cccc(OC)c2)c1` showed an RP-LC retention time of 807 s.

As to `COC(=O)c1cc(S(=O)(=O)N2CCCC2C(=O)Nc2cc(OC)cc(OC)c2)cn1C` (stereo not drawn), the RP-LC retention time stood at 867 s.

In the case of `CCCCN1CCN(C(=O)COc2ccc(NC(=O)C3CC3)cn2)CC1`, the RP-LC retention time came out at 570 s.

`Cc1nc(N2CCCC(C(=O)Nc3ccc(F)cc3)C2)c2c(C)c(C)oc2n1` (stereo not drawn) came in with an RP-LC retention time of 910 s.

The compound `O=C(CCNc1c(-c2ccccc2)nc2cnccn12)NCc1ccccc1F` yielded an RP-LC retention time of 698 s.

In the case of `O=C(Nc1cccc(C(F)(F)F)c1)N1CCCC1c1nncn1C1CCCC1` (stereo not drawn), the RP-LC retention time came to 765 s.

Take `Cc1ccc(NC(=O)Nc2nccn(-c3cccc(Cl)c3)c2=O)cc1F`: the RP-LC retention time is 1000 s.

As for `Cc1nc(-c2ccccc2)nn1C1CCN(S(=O)(=O)c2ccccc2C(F)(F)F)C1` (stereo not drawn), the RP-LC retention time came out at 897 s.

For the compound `COc1ccccc1-c1cc2c(=O)n(Cc3nc(-c4ccccc4OC)oc3C)ccn2n1`, the RP-LC retention time was found to be 1020 s.

Turning to `CCn1cnc2ccc(C(=O)NC3CC3)cc2c1=O`, the RP-LC retention time amounted to 714 s.

Compound `Cc1ccc(-c2nnc(Cc3nc(-c4ccc(Br)cc4)no3)o2)cc1C` displayed an RP-LC retention time of 1230 s.

Consider `Cc1ccc(NC(=O)Nc2ccc3nc(N4CCN(C)CC4)cc(C)c3c2)c([N+](=O)[O-])c1`, for which the RP-LC retention time amounted to 624 s.

The compound `CCNc1nccc(N2CCC(CC(=O)NCc3ccc(OC)c(OC)c3)CC2)n1` had an RP-LC retention time of 614 s.

Compound `Cc1nc2cccnc2n1C1CCN(C(=O)Nc2ccc3c(c2)OCCO3)CC1` had an RP-LC retention time of 612 s.

In the case of `O=C(Cc1ccc2c(c1)OCO2)N(CC1CCCO1)c1nc2c(F)cc(F)cc2s1` (stereo not drawn), the RP-LC retention time came to 1180 s.

As for `CC(C)(C)C(=O)Nc1cnc(-c2ccc(F)cc2)nc1`, the RP-LC retention time came out at 960 s.

The compound `CC(C)Cn1cc(CCNC(=O)Nc2c(F)cccc2F)c2cccnc21` registered an RP-LC retention time of 755 s.

As for `COc1ccc(OC)c(S(=O)(=O)N2CCCC(C(=O)NCCO)C2)c1` (stereo not drawn), the RP-LC retention time was determined as 636 s.

With `O=C(NC1CC1)C1CCCN(c2cnc3nccnc3c2)C1` (stereo not drawn), the RP-LC retention time is 592 s.

`Cc1ccc2c(c1)N(Cc1nc(-c3ccc(C)c(C)c3)no1)C(=O)CO2`: the RP-LC retention time came to 1160 s.

Consider `O=S(=O)(Nc1ccc(N2CCOCC2)cc1)c1ccc(-c2nnc(C3CCC3)o2)o1`, for which the RP-LC retention time is 828 s.

Regarding `Cc1ccc(-c2csc(NC(=O)CSc3nc4c(cc3C#N)C(=O)CCC4)n2)cc1`, the RP-LC retention time was 583 s.

`COc1cccc(Cn2c(=O)c3cnc(-c4ccc(C)cc4)nc3n(C)c2=O)c1` had an RP-LC retention time of 1250 s.

`Cc1nc(C2CCOCC2)n(C2CCN(S(=O)(=O)c3cccc(Cl)c3)C2)n1` (stereo not drawn) registered an RP-LC retention time of 738 s.

In turn, `Cn1nc(CNC(=O)c2cccs2)c2ccccc21` gave an RP-LC retention time of 764 s.

`O=C(C1CCCO1)N1CCC2(CC1)NCCc1c2[nH]c2ccccc12` (stereo not drawn): the RP-LC retention time amounted to 610 s.

The compound `CCc1cc(C(=O)Nc2ccc(F)c(F)c2)no1` came in with an RP-LC retention time of 952 s.
